The values that follow come from US12600726B2, “Antagonists of the muscarinic acetylcholine receptor M4” (Vanderbilt University, priority 2017, dated 2026).

One assay addresses T1, Rat M4 (Rattus norvegicus, UniProt P08485).
T1 construct: expressed in transfected cells; host or cells: CHO-K1 (ATCC), stably expressing M4 and Gqi5
T1 sequence (P08485 1-478): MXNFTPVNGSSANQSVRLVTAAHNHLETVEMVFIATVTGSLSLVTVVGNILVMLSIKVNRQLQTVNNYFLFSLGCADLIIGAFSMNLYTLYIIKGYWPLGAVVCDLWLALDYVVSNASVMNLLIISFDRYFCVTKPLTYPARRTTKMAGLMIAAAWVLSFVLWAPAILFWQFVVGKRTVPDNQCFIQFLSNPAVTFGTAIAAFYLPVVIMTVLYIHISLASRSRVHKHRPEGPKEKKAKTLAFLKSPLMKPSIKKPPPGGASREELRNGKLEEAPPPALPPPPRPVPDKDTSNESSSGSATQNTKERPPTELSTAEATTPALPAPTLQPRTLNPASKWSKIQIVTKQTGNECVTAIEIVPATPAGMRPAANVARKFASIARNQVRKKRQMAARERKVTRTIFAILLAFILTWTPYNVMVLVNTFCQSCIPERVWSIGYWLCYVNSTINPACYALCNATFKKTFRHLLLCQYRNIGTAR
Nature of the assay: mAChR M4 cell-based functional calcium flux assay (rat M4/Gqi5/CHO cells). The settings on record: for Emin (rat M4): % ACh maximum at 30 μM. On the procedure: (§1) Human, rat, or mouse M4. cDNA, along with the chimeric G protein Gqi5, were transfected into Chinese hamster ovary (CHO-K1) cells purchased from the American Type Culture Collection using Lipofectamine2000. M4/Gqi5/CHO cells were grown in Ham's F-12 medium containing 10% heat-inactivated fetal bovine serum (FBS), 20 mM HEPES, 500 μg/mL G418 sulfate, and 200 μg/mL Hygromycin B.
(§2) For high throughput measurement of agonist-evoked increases in intracellular calcium, CHO-K1 cells stably expressing muscarinic receptors were plated in growth medium lacking G418 and hygromycin at 15,000 cells/20 μL/well in Greiner 384-well black-walled, tissue culture (TC)-treated, clear-bottom plates (VWR). Cells were incubated overnight at 37° C. and 5% CO2. The next day, cells were washed using an ELX 405 (BioTek) with assay buffer; the final volume was then aspirated to 20 μL. Next, 20 μL of a 2.3 μM stock of Fluo-4/acetoxymethyl ester (Invitrogen, Carlsbad, CA), prepared as a 2.3 mM stock in DMSO and mixed in a 1:1 ratio with 10% (w/v) Pluronic F-127 and diluted in assay buffer, was added to the wells and the cell plates were incubated for 50 min at 37° C. and 5% CO2. Dye was removed by washing with the ELX 405 and the final volume was aspirated to 20 μL. Compound master plates were formatted in a 10 point concentration-response curve (CRC) format (1:3 dilutions) in 100% DMSO with a starting concentration of 10 or 1 mM using a BRAVO liquid handler (Agilent). Test compound CRCs were then transferred to daughter plates (240 nL) using the Echo acoustic plate reformatter (Labcyte, Sunnyvale, CA) and then diluted into assay buffer (40 μL) to a 2× stock using a Thermo Fisher Combi (Thermo Fisher Scientific, Waltham, MA).
(§3) Calcium flux was measured using the Functional Drug Screening System (FDSS) 6000 or 7000 (Hamamatsu Corporation, Tokyo, Japan) as an increase in the fluorescent static ratio. Compounds were applied to cells (20 μL, 2×) using the automated system of the FDSS at 2 seconds into the protocol and the data were collected at 1 Hz. At 143 s, 10 μL of an EC20 concentration of the muscarinic receptor agonist acetylcholine was added (5×), followed by the addition of 12 μL of an EC80 concentration of acetylcholine at the 268 s time point (5×). Agonist activity was analyzed as a concentration-dependent increase in calcium mobilization upon compound addition. Positive allosteric modulator activity was analyzed as a concentration-dependent increase in the EC20 acetylcholine response. Antagonist activity was analyzed as a concentration-dependent decrease in the EC80 acetylcholine response; for the purposes of the tables herein, an IC50 (inhibitory concentration 50) was calculated as a concentration-dependent decrease of the response elicited by an EC80 concentration of acetylcholine. Concentration-response curves were generated using a four-parameter logistical equation in XLFit curve fitting software (IDBS, Bridgewater, NJ) for Excel (Microsoft, Redmond, WA) or Prism (GraphPad Software, Inc., San Diego, CA) or the Dotmatics software platform (Dotmatics, Bishop's Stortford, UK).
(§4) Compounds were synthesized as described above. Activity (IC50 and Emin) was determined in the mAChR M4 cell-based functional assay as described above and the data are shown in Table 2 and Table 3. The compound number corresponds to the compound numbers used in the examples and Tables 1 and 1.1.

The next assay deals with T2, Human M4 (Homo sapiens, UniProt P08173).
T2 construct: expressed in transfected cells; host or cells: CHO-K1 (ATCC), stably expressing M4 and Gqi5
T2 sequence (P08173 1-479): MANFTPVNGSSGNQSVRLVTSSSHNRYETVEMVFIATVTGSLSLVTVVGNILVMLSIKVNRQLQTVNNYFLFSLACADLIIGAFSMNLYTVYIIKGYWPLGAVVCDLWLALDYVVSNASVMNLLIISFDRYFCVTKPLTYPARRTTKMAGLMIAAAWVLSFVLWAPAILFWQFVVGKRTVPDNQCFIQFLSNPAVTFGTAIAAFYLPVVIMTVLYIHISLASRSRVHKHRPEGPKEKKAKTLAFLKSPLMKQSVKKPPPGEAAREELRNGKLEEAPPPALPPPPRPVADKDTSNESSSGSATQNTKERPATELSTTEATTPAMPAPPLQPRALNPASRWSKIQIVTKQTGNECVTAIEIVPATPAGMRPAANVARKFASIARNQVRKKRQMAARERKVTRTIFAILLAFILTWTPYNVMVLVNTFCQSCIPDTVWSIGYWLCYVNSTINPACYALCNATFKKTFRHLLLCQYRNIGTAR
The assay can be described thus: mAChR M4 cell-based functional calcium flux assay (human M4/Gqi5/CHO cells). The following applies: for Emin (human M4): % ACh maximum at 30 μM; for IC50: decrease of the response to an EC80 concentration of acetylcholine. On the procedure: as §1, §2, §3, §4

Setting [1] is: decrease of the response to an EC80 concentration of acetylcholine.

As to `Fc1ccc(Cl)c(-c2ccc(NCC3CC34CCN(Cc3ncccc3C(F)(F)F)CC4)nn2)c1` (stereo not shown) [Compound 1, 6-(2-chloro-5-fluorophenyl)-N-((6-((3-(trifluoromethyl)pyridin-2-yl)methyl)-6-azaspiro[2.5]octan-1-yl)methyl)pyridazin-3-amine], the “Emin (rat M4)” value at Rat M4 came to 2.75%. The IC50 on Rat M4 (setting [1]) is 1.15 µM. Also, at Human M4, the “Emin (human M4)” value was determined as 2.74% and the IC50 amounted to 0.0746 µM.

For the compound `CC(C)(C)CCN1CCC2(CC1)CC2CNc1ccc(-c2ccc(F)cc2)nn1` (stereo not shown) [Compound 2, N-((6-(3,3-Dimethylbutyl)-6-azaspiro[2.5]octan-1-yl)methyl)-6-(4-fluorophenyl)pyridazin-3-amine], on Rat M4, the “Emin (rat M4)” value came to 3.35%. The IC50 came out at 0.159 µM on Rat M4 (setting [1]) and 0.0424 µM on Human M4. The “Emin (human M4)” value at Human M4 was 2.54%.

`Cc1nn(C)cc1-c1ccc(NCC2CC23CCN(C[C@H]2C[C@@H]4CC[C@H]2O4)CC3)nn1` (stereo partly drawn) [Compound 3, N-((6-(((1R,2R,4S)-7-Oxabicyclo[2.2.1]heptan-2-yl)methyl)-6-azaspiro[2.5]octan-1-yl)methyl)-6-(1,3-dimethyl-1H-pyrazol-4-yl)pyridazin-3-amine]: the “Emin (rat M4)” value at Rat M4 is 7.69%. Besides, at Rat M4 (setting [1]), the half-maximal inhibitory concentration (IC50) is 0.742 µM. Moreover, on Human M4, the “Emin (human M4)” value was determined as 3.52% and the IC50 turned out to be 0.0436 µM.

For the compound `Cc1cnn(C)c1-c1ccc(NC(=O)C2CC23CCN(CCC(C)(C)C)CC3)nn1` (stereo not shown) [Compound 5, N-(6-(1,4-dimethyl-1H-pyrazol-5-yl)pyridazin-3-yl)-6-(3,3-dimethylbutyl)-6-azaspiro[2.5]octane-1-carboxamide], the “Emin (rat M4)” value on Rat M4 is recorded as 18.7%. Besides, the IC50 at Rat M4 (setting [1]) came out at 5.72 µM. At Human M4, the “Emin (human M4)” value worked out at 5.53% and the 50% inhibitory concentration (IC50) came to 1.68 µM.

For the compound `Cc1nn(C)cc1-c1ccc(NCC2CC23CCN(CCC(C)(C)C)CC3)nc1` (stereo not shown) [Compound 6, N-[[6-(3,3-dimethylbutyl)-6-azaspiro[2.5]octan-2-yl]methyl]-5-(1,3-dimethylpyrazol-4-yl)pyridin-2-amine], on Rat M4, the “Emin (rat M4)” value was 3.97%. In addition, at Rat M4 (setting [1]), the half-maximal inhibitory concentration (IC50) was 0.313 µM. For the same compound, at Human M4, the “Emin (human M4)” value was determined as 3.87% and the IC50 is 0.103 µM.

As to `Cc1cnn(C)c1-c1ccc(NC(=O)C2CC23CCN(CC(C)C(C)(C)C)CC3)nn1` (stereo not shown) [Compound 7, N-[6-(2,4-dimethylpyrazol-3-yl)pyridazin-3-yl]-6-(2,3,3-trimethylbutyl)-6-azaspiro[2.5]octane-2-carboxamide], the “Emin (rat M4)” value at Rat M4 was 22.7%. For the same compound, the IC50 at Rat M4 (cells printed in μM, decrease of the EC80 acetylcholine response) is greater than 10 µM; at Human M4, 2.24 µM. Moreover, the “Emin (human M4)” value at Human M4 was 6.29%.

Take `Cc1cnn(C)c1-c1ccc(NC(=O)C2CC23CCN(CC2CC4C=CC2C4)CC3)nn1` (stereo not shown) [Compound 8, 6-(5-bicyclo[2.2.1]hept-2-enylmethyl)-N-[6-(2,4-dimethylpyrazol-3-yl)pyridazin-3-yl]-6-azaspiro[2.5]octane-2-carboxamide]: the “Emin (rat M4)” value at Rat M4 is 10.8%. Also, the half-maximal inhibitory concentration (IC50) on Rat M4 (setting [1]) came out at 3.64 µM. Besides, at Human M4, the “Emin (human M4)” value amounted to 65.0% and the IC50 turned out to be 0.928 µM.

`CC(CN1CCC2(CC1)CC2CNc1ccc(-c2cc(F)ccc2Cl)nn1)C(C)(C)C` (stereo not shown) [Compound 12, 6-(2-chloro-5-fluoro-phenyl)-N-[[6-(2,3,3-trimethylbutyl)-6-azaspiro[2.5]octan-2-yl]methyl]pyridazin-3-amine]: the “Emin (rat M4)” value at Rat M4 came out at 2.40%. Besides, the IC50 on Rat M4 (setting [1]) was determined as 0.22 µM. Besides, at Human M4, the “Emin (human M4)” value came out at 2.15% and the IC50 was 0.0393 µM.

Turning to `CC(C)(C)CCN1CCC2(CC1)CC2CNc1ccc(-c2cc(F)ccc2Cl)nn1` (stereo not shown) [Compound 13, 6-(2-chloro-5-fluoro-phenyl)-N-[[6-(3,3-dimethylbutyl)-6-azaspiro[2.5]octan-2-yl]methyl]pyridazin-3-amine], the “Emin (rat M4)” value on Rat M4 is recorded as 2.82%. Besides, the half-inhibitory concentration (IC50) was found to be 0.117 µM on Rat M4 (setting [1]) and 0.0156 µM at Human M4. For the same compound, the “Emin (human M4)” value at Human M4 is 2.29%.

In the case of `Fc1ccc(Cl)c(-c2ccc(NCC3CC34CCN(CC3CCCCC3)CC4)nn2)c1` (stereo not shown) [Compound 14, 6-(2-chloro-5-fluoro-phenyl)-N-[[6-(cyclohexylmethyl)-6-azaspiro[2.5]octan-2-yl]methyl]pyridazin-3-amine], on Rat M4, the “Emin (rat M4)” value is 2.42%. Also, the IC50 on Rat M4 (setting [1]) was 0.228 µM. Further, on Human M4, the “Emin (human M4)” value worked out at 1.95% and the IC50 is 0.0177 µM.

For `Fc1ccc(Cl)c(-c2ccc(NCC3CC34CCN(CC3CCCOC3)CC4)nn2)c1` (stereo not shown) [Compound 15, 6-(2-chloro-5-fluoro-phenyl)-N-[[6-(tetrahydropyran-3-ylmethyl)-6-azaspiro[2.5]octan-2-yl]methyl]pyridazin-3-amine], at Rat M4, the “Emin (rat M4)” value is 4.24%. Besides, on Rat M4 (setting [1]), the half-maximal inhibitory concentration (IC50) came out at 0.519 µM. Further, on Human M4, the “Emin (human M4)” value came out at 3.08% and the IC50 is 0.00651 µM.

As for `Fc1ccc(Cl)c(-c2ccc(OCC3CC34CCN(CC3CCCCC3)CC4)nn2)c1` (stereo not shown) [Compound 87, 2-[[6-(2-chloro-5-fluoro-phenyl)pyridazin-3-yl]oxymethyl]-6-(cyclohexylmethyl)-6-azaspiro[2.5]octane], on Rat M4, the “Emin (rat M4)” value turned out to be 3%. For the same compound, the IC50 at Rat M4 (setting [1]) amounted to 1.05 µM.

Consider `CC(C)(C)CCN1CCC2(CC1)CC2CNc1ccc(C2=CCCC2)nn1` (stereo not shown) [Compound 90, 6-(cyclopenten-1-yl)-N-[[6-(3,3-dimethylbutyl)-6-azaspiro[2.5]octan-2-yl]methyl]pyridazin-3-amine], for which the “Emin (rat M4)” value on Rat M4 was 5%. The concentration for half-maximal inhibition (IC50) at Rat M4 (setting [1]) was 0.347 µM.

Turning to `CC(C)(C)/C=C/c1ccc(NCC2CC23CCN(CCC(C)(C)C)CC3)nn1` (stereo not shown) [Compound 91, 6-[(E)-3,3-dimethylbut-1-enyl]-N-[[6-(3,3-dimethylbutyl)-6-azaspiro[2.5]octan-2-yl]methyl]pyridazin-3-amine], the “Emin (rat M4)” value on Rat M4 is on record as 5%. Besides, at Rat M4 (setting [1]), the IC50 was 0.409 µM.

For the compound `Cc1ccc(/C=C/c2ccc(NCC3CC34CCN(CCC(C)(C)C)CC4)nn2)cc1` (stereo not shown) [Compound 92, N-[[6-(3,3-dimethylbutyl)-6-azaspiro[2.5]octan-2-yl]methyl]-6-[(E)-2-(p-tolyl)vinyl]pyridazin-3-amine], at Rat M4, the “Emin (rat M4)” value was determined as 4%. In addition, the half-inhibitory concentration (IC50) at Rat M4 (setting [1]) came to 1.01 µM.
